How the values were obtained:
mice = conditions: 2 g/kg; cited from earlier work
[1] = tested on: human acute myeloid leukemia cell line HL-60; design: method as in PMID 21547680; conditions: cited from earlier work
[2] = tested on: human cervix adenocarcinoma cell line (HeLa); design: method as in PMID 24633329; conditions: cited from earlier work
[3] = target: porcine pancreatic elastase (Sus scrofa, UniProt P00772); assay: Spectrophotometric elastase assay with SANA as substrate; type: biochemical
Procedure: A spectrophotometric elastase assay was performed as previously described [25], with N-Succ-(-Ala)3-p-nitroanilide (SANA) as the substrate. […] The addition of SANA started the reaction. Changes in product formation: p-nitroaniline was recorded every 20 seconds for 20 minutes in the absorbance λ = 410 nm with the use of the Epoch (BioTek System) spectrophotometer in 96-well plates (BIOCOM SYSTEMS). The oleanolic acid was used as a control [26]. Kinetic parameters Vo, Km and Vmax were calculated according to Michaelis-Menten and Lineweaver-Burk plots and analyzed in the GraphPad prism program and Excel.
As stated by the data supplier: 1U elastase hydrolyses 1 μM SANA/min at pH 8 and 25°C. The molar absorption coefficient of p-nitroaniline is 9800 M^–1 cm^–1.

[4] = design: method as in ref 21 = [21]; 21 Nuñez-Selles AJ . Antioxidant therapy: myth or reality? J Braz Chem Soc . 2005; 16 : 699 – 710 .; conditions: cited from earlier work
rats = conditions: 2 g/kg; cited from earlier work
[5] = design: method as in ref 18 = [18]; 18 Acosta J , Sevilla I , Salomón S , Nuevas L , Romero A , Amaro D . Determination of mangiferin solubility in solvents used in the biopharmaceutical industry . Pharm Pharmacogn Res . 2016; 4 ( 2 ):; conditions: cited from earlier work
[6] = type: in vitro ADME; conditions: human, 25 μg/ml
Procedure: The studies were performed using human cadaver full skin (thickness of 0.75 mm) obtained from the region of the thorax of 40–60 years old donors. The study was reviewed and approved by the Independent Bioethics Commission for Research of the Medical University of Gdansk (number NKBBN/120-41/2014). Before the experiment, the skin was stored frozen at -20 °C. The preparations were applied as an infinite dose (0.5 ml mangiferin solution at concentration of 25 μg/ml) on the surface of the skin placed in the flow-through Teflon® diffusion chamber (Crown Glass, USA), and left for 24 h. The diffusion area of the skin was 0.65 cm^2. The donor compartment of the chamber remained occluded, and the system was maintained at the temperature 37°C ± 0.5°C. Saline solution, 20 ml, preserved with 0.005% sodium azide (Fluka, Buchs, Switzerland) was recirculated beneath the skin with a constant rate of 10 ml/h. Acceptor fluid ensured the sink condition. After the penetrants were removed from the skin, the stratum corneum was separated by tape-stripping method, using 30 fragments of an adhesive tape (3M Medica Pharma, St. Paul, MN, USA). The following parameters were employed: pressure about 1 kg/cm^2 (applied by stamp), 2 s duration of pressure, and a rapid removal rate at an angle of 45^o. The skin layers were isolated by the heat separation technique. […]

[7] = target: Collagenase from Clostridium histolyticum; assay: Spectrophotometric collagenase assay with FALGPA as substrate; type: biochemical
Procedure: A spectrophotometric collagenase assay was performed as previously described, with N-[3- (2-Furyl) acryloyl]- Leu- Gly- Pro-Ala (FALGPA) as the substrate. […] The reaction mixtures were preincubated with mangiferin solutions for 15 minutes at room temperature. The addition of FALGPA started the reaction. Changes in product formation were recorded every 20 seconds for 20 minutes in the absorbance λ = 335 nm with the use of the Epoch (BioTek System) spectrophotometer in 96-well plates (BIOCOM SYSTEMS). Oleanolic acid was used as a control. The kinetic parameters Vo, Km and Vmax were calculated according to Michaelis-Menten and Lineweaver-Burk plots and analyzed in the GraphPad prism program and Excel.
As stated by the data supplier: 1U of collagenase hydrolyses […] FALGPA/min at pH 7.5 and 25°C, in the presence of calcium ions.

Chain of porcine pancreatic elastase (P00772 27-266): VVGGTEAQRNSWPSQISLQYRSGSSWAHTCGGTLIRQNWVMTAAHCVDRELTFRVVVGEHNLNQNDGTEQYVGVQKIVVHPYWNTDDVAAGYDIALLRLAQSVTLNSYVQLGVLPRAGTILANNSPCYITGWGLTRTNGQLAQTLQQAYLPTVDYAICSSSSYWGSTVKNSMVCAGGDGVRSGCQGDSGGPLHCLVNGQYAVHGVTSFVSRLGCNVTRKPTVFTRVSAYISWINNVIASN

Q: Which dermal acute toxicity (mice) does the source give for `O=c1c2cc(O)c(O)cc2oc2cc(O)c([C@@H]3O[C@H](CO)[C@@H](O)[C@H](O)[C@H]3O)c(O)c12` [mangiferin, 2-C-β-D-glucopyranosyl-1,3,6,7-tetrahydroxyxanthone] here?
A: did not show toxic effects

Q: And the “apoptosis in HL-60 cells” value [1]?
A: induce apoptosis

Q: And the “effect on apoptotic effects of hesperidin in HeLa cells” value [2]?
A: enhanced apoptotic effects of hesperidin

Q: And the “type of elastase inhibition” value ([3]; Lineweaver-Burk plots, 0, 59, 118 and 177 μM)?
A: noncompetitive

Q: What about the IC50 ([3]; SANA 0.8 mM, pH 8, 15 min preincubation, read-out: concentration leading to a 50% loss of elastase activity (IC50)) of the same molecule?
A: 140 ± 9.34 µM

Q: What about the “concentrations that inactivated elastase almost completely” value ([3]; SANA substrate) of the same molecule?
A: above 473 μM

Q: And the “reversibility of elastase inhibition” value ([3]; activity vs enzyme concentration plots, 0, 59, 118 and 177 μM)?
A: reversible

Q: And the “potency on elastase relative to oleanolic acid (fold lower)” value ([3]; vs reference oleanolic acid)?
A: 4.2 fold

Q: And the “log P” value [4]?
A: 2.73

Q: What about the dermal acute toxicity (rats) of the same molecule?
A: did not show toxic effects

Q: What about the solubility in ethanol ([5]; ethanol) of the same molecule?
A: slightly soluble

Q: And the “solubility in nonpolar solvents” value ([5]; some nonpolar solvents (e.g. n-hexane, diethyl ether))?
A: practically insoluble

Q: And the solubility in water ([5]; water)?
A: sparingly soluble

Q: And the “amount permeated through the skin from ethanol solution relative to water solution” value [6]?
A: about 2 fold

Q: And the “concentration in the acceptor fluid after 24 hours relative to after 2 hours” value [6]?
A: about 2 fold

Q: And the IC50 ([7]; FALGPA 0.8 mM, pH 7.5, 15 min preincubation, read-out: concentration leading to a 50% loss of collagenase activity (IC50))?
A: 254 ± 7.56 µM

Q: What about the “concentrations that inactivated collagenase almost completely” value ([7]; FALGPA substrate) of the same molecule?
A: above 500 μM

Q: What about the “type of collagenase inhibition” value ([7]; Lineweaver-Burk plots) of the same molecule?
A: noncompetitive

Q: And the “reversibility of collagenase inhibition” value ([7]; activity vs enzyme concentration plots)?
A: reversible

Q: What about the “potency on collagenase relative to oleanolic acid (fold lower)” value ([7]; vs reference oleanolic acid) of the same molecule?
A: 4.9 fold
